Source: ChEMBL document CHEMBL1201862, “PubChem BioAssay data set” (2004)
The source made the active and inactive calls. Rule as the data show it, for most assays here: actives have a measured EC50 and inactives only a lower limit.

Columns and labels:
cells [1] = assay type: functional, cell-based
cells [2] = assay type: functional, cell-based; remark: listed apart in the source
[3] = target: T1, Short transient receptor potential channel 4 (Mus musculus, UniProt Q9QUQ5); experiment: block of DAMGO-driven TRPC4 calcium entry – cell-based, HEK293 TRPC4/mu-opioid, Fluo-4 calcium, dose response (AID 434942); assay type: functional;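 also: potency of inhibitors blocking the TRPC4 calcium response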
T1 sequence (Q9QUQ5 whole entry): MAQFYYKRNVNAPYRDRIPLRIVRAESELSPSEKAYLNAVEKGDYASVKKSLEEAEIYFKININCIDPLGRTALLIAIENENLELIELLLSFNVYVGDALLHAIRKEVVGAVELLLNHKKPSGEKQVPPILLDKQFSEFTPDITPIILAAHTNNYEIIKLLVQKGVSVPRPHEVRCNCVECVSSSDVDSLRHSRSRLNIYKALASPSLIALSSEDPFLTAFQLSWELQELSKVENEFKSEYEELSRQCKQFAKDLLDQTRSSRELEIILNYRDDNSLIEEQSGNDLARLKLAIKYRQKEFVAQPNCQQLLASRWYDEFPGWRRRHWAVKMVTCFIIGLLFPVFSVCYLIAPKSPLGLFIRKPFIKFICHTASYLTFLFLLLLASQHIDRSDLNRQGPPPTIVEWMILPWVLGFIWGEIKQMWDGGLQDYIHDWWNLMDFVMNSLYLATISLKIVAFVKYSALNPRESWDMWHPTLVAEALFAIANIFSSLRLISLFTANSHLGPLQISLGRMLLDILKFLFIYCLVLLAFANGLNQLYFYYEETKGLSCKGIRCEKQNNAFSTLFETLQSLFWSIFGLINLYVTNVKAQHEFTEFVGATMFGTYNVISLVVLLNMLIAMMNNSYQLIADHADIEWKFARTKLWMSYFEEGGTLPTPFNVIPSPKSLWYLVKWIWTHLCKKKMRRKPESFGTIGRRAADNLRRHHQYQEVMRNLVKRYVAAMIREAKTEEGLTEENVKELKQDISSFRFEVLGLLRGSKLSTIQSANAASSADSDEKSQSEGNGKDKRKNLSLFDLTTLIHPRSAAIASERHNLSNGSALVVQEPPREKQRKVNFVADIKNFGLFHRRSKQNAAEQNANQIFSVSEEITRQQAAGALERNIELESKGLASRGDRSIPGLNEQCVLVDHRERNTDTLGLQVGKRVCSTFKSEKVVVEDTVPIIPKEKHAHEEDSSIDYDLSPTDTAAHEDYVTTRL

[4] = target: T2, Carboxy-terminal domain RNA polymerase II polypeptide A small phosphatase 1 (Homo sapiens, UniProt Q9GZU7); experiment: CTDSP1 inhibitors, concentration-response, biochemical, absorbance readout, ultra-high-throughput screen actives (AID 540297); assay type: functional
T2 sequence (Q9GZU7 whole entry): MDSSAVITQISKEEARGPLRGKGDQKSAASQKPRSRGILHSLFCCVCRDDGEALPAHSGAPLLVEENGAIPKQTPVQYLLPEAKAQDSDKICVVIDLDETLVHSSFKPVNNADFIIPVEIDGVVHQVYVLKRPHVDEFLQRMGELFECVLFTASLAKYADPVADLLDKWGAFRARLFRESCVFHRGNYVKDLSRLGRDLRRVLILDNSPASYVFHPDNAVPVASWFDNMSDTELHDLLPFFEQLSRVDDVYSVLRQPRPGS

cells [5] = assay type: functional
[6] = target: T3, Calpain-2 catalytic subunit (Sus scrofa, UniProt P43367); experiment: m-calpain protease blockers, concentration series – biochemical, fluorogenic peptide substrate, dose response (AID 1420); assay type: functional
T3 sequence (P43367 whole entry): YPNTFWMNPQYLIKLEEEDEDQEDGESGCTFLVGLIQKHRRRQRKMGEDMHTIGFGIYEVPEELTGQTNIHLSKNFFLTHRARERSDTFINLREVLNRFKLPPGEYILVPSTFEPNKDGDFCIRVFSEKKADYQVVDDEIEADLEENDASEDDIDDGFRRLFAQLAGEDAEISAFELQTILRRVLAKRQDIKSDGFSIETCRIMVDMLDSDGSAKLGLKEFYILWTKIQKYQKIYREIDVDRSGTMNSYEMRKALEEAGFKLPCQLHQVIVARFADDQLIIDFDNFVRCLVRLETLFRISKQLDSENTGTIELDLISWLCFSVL

[7] = luciferase reporter signal suppression in cells – H4 neuroglioma cells, luminescence, dose response (AID 1990); assay type: functional, cell-based
[8] = Luminescence Cell-Based Dose Response HTS to Identify Inhibitors of 5'UTR Stem-Loop Driven Prion Protein mRNA Translation in H4 Neuroglioblastoma Cells. [Related pubchem assays: 1827 (Project Summary), 1813 (Primary HTS)]; assay type: functional
[9] = alpha-synuclein stem-loop luciferase translation blockers – H4 neuroglioma cells, luminescence, confirmation (AID 1988); assay type: functional, cell-based
[10] = target: T4, Corticotropin-releasing factor receptor 2/Corticotropin-releasing factor-binding protein (Homo sapiens, UniProt P24387+Q13324); experiment: Dose Response confirmation of uHTS hits for small molecule antagonists of the CRF-binding protein and CRF-R2 receptor complex.; assay type: functional; details: read-out: IC50_Mean
T4 sequence (Q13324 whole entry): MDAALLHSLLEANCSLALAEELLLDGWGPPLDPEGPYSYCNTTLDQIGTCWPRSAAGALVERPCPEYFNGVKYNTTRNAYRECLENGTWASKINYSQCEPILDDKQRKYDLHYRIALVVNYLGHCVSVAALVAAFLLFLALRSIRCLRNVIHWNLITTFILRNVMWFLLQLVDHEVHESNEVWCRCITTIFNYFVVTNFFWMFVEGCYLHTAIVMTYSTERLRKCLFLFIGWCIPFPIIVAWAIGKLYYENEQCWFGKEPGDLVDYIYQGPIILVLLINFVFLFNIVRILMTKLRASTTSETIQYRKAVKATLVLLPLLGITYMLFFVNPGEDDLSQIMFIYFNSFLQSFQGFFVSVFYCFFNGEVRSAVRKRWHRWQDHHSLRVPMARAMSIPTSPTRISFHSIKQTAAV
T4 sequence (P24387 whole entry): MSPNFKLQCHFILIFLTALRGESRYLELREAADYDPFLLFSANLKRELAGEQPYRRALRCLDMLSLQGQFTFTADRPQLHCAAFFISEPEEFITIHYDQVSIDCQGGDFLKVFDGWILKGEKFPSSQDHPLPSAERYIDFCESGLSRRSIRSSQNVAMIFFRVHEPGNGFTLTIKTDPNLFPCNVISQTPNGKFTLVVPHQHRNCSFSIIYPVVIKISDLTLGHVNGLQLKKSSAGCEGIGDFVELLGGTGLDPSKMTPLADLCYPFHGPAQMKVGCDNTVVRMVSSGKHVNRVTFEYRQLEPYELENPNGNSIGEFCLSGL

[11] = target: T4, Corticotropin-releasing factor receptor 2/Corticotropin-releasing factor-binding protein; experiment: activators of CRF receptor 2 with binding protein – uHTS hits, confirmation (AID 602473); assay type: functional; details: read-out: EC50_Mean
[12] = tested on: Streptococcus sp. 'group A'; experiment: Streptococcus pyogenes SK(-)GAS viability under kanamycin – luminescence, BacTiterGlo, confirmation, counter-screen for streptokinase expression inhibitor project, dose response (AID 1900); assay type: functional, organism-based
Streptococcus = experiment: GAS UMAA2166 growth inhibition – luminescence, BacTiterGlo, counter-screen for streptokinase expression inhibitor project, dose response (AID 1915); assay type: functional, organism-based;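 also: potency for reduction of bacterial viability or growth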

## O=C(NC1CCCC1)c1cc(-c2cccs2)on1
Cells [1]
  EC50: 108 µM (active)
Cells [2]
  EC50: 52.2 µM (active)

## Cc1ncsc1CCOC(=O)C12CC3CC(CC(C3)C1)C2
[3]
  EC50: 5.31 µM (active)

## Cc1ccc(NC(=O)c2cc(-c3ccc(C)c(C)c3O)n[nH]2)cc1C
[4]
  IC50: 8.08 µM (active)

## COc1ccc(O)c(C(=O)c2cnc3c(c2)c(=O)[nH]c(=O)n3C)c1
[3]
  EC50: 1.5 µM (active)

## O=C(OCCCCN1C(=O)c2ccccc2C1=O)c1ccc(Br)o1
Cells [5]
  IC50: 46.8 µM (active)

## CC1CC(C)CN(C(=O)Cn2c(=O)n(CCCCC(=O)NCc3ccco3)c(=O)c3ccccc32)C1 (stereo not given)
[6]
  IC50: > 50 µM (not active)

## CCN(CC)CCOC(=O)C(Cc1ccco1)Cc1cccc2ccccc12 (stereo not given)
[7]
  EC50: > 120 µM (not active)
Cells [1]
  EC50: > 350 µM (not active)
[8]
  EC50: > 120 µM (not active)
[9]
  EC50: > 120 µM (not active)
Cells [2]
  EC50: > 350 µM (not active)
[10]
  IC50: > 47.1 µM (inactive)
[11]
  EC50: > 53 µM (inactive)

## C#CCSc1nnc(-c2ccc([N+](=O)[O-])cc2)o1
Cells [5]
  IC50: 9.4 µM (active)

## Cc1cc(=O)oc2cc(NC(=O)c3ccc(OC(F)F)cc3)ccc12
[4]
  IC50: 10.2 µM (active)

## O=C(Nc1nc2ccccc2n1CCN1CCCC1)c1ccc(Cl)cc1
Cells [5]
  IC50: 25.4 µM (active)

## O=[N+]([O-])c1cccc(/C=C/c2ccc3cccc(O)c3n2)c1
[12]
  EC50: 3.36 µM (active)
Cells [1]
  EC50: > 350 µM (not active)
Cells [2]
  EC50: 7.51 µM (active)
Streptococcus
  EC50: 7.37 µM (active)

## O=C(OCCCOC(=O)c1ccc([N+](=O)[O-])o1)c1ccc([N+](=O)[O-])o1
Cells [5]
  IC50: < 0.1 µM (active)

## Cn1nnnc1SCCNCc1ccccc1OCc1ccc(Cl)cc1
[3]
  EC50: 1.33 µM (active)

## CC(C)Cc1nnc(NC(=O)CCC(=O)N2CCC3(CC2)OCCO3)s1
Cells [1]
  EC50: > 350 µM (not active)
Cells [2]
  EC50: > 350 µM (not active)
